Experimental data published in patent publication US11638425B2, “Agent for inducing stress tolerance in plants” (Menicon Co. Ltd., priority 2017, dated 2023).

Assays:
sprouted alfalfa = test: Spindly growth suppression test of seedling; assay type: in vivo, Medicago sativa; details: 50 μL sprayed per individual, 10 days at 25° C.
Description: A spindly growth suppression test was conducted using sprouted alfalfa as a seedling and naphthoquinone compounds as quinone compounds. First, just-sprouted alfalfa (Medicago sativa of the family Leguminosae) was transplanted to a plastic cup containing vermiculite. Each naphthoquinone compound (shown in Table 5) dissolved in DMSO was diluted to 100 μM or 1000 μM (final concentration) with deionized water to prepare a test solution of each example (final concentration of DMSO: 1.0% by volume). An aqueous solution containing 1.0% by volume of DMSO was used as a test solution of a control. 50 μL of the test solution was sprayed per alfalfa individual. Then, cultivation was performed for 10 days in an incubator of 25° C., followed by hypocotyl length measurement.

maize [1] = test: Drought tolerance improvement test of maize; assay type: in vivo; details: 10 μM, 2 mL/cell; 19 days without water, counted 5 days after water addition
Description: Four parts each involving 9 cells (3×3) were cut out of a 72-cell tray. Seedling soil was placed therein, and water was added. 4 seeds of maize were seeded per cell. The temperature was set to 20° C. using a plant growth chamber, followed by cultivation under 16-hour light and 8-hour dark conditions. After budding, each naphthoquinone compound dissolved in DMSO was diluted to 10 μM (final concentration) with deionized water to prepare a test solution of each example (final concentration of DMSO: 1.0% by volume). Each test solution was sprayed to leaf surface in one of the cell trays. The volume of the test solution sprayed was set to 2 mL/cell. The same volume of water was sprayed to the other cell tray and used as a control. After the spraying, cultivation was continued without the addition of water. 19 days after the spraying, water was added to the soil. 5 days after the water addition, the number of maize survivors was counted and divided by the initial number of growing plants to calculate a survival rate (%).

[2] = system: HSP17.6C-C1 of Arabidopsis thaliana; test: HSP expression test (HSP17.6C-C1 upstream region linked to GUS, 4-MU production); assay type: in vivo; set-up: key: 4-MU per plant divided by 4-MU of 50 μM geldanamycin positive control; details: soaked 6 hours at 22° C., positive control 50 μM geldanamycin
Description: First, a construct linked to β-glucuronidase (GUS) gene was introduced to 1 kb upstream of HSP17.6C-C1 of Arabidopsis thaliana (the family Brassicaceae) to prepare a mutant. Each naphthoquinone compound (shown in Table 1) dissolved in DMSO was diluted to 1 μM, 10 μM, 100 μM, or 1000 μM (final concentration) with deionized water to prepare a test solution of each example (final concentration of DMSO: 1.0% by volume). A 50 μM geldanamycin solution was similarly prepared as a positive control.
Next, two individuals of 7-day-old Arabidopsis thaliana mutants grown in a ⅕ MS medium were soaked in 300 μL of the test solution of each example or the positive control at 22° C. for 6 hours. The Arabidopsis thaliana was washed with deionized water, then soaked in 200 μL of a 4-methylumbelliferyl-β-D-glucuronide hydrate solution containing a surfactant, and incubated at 22° C. for 16 hours in the dark. The fluorescence intensity of the supernatant was measured, and the amount of 4-methylumbelliferone (4-MU) production per plant was calculated. The calculated value of 4-MU was divided by the value of 4-MU of the positive control to calculate a ratio vs. positive control. A higher numerical value means that HSP was expressed at a larger level.
Each shikonin compound or alkannin compound (shown in Table 2) dissolved in DMSO was diluted to 1 μM, 10 μM, 100 μM, or 1000 μM (final concentration) with deionized water to prepare a test solution of each example (final concentration of DMSO: 1.0% by volume). A 50 μM geldanamycin solution was similarly prepared as a positive control. The other test procedures were performed in the same way as in Test Example 1. The calculated value of 4-MU was divided by the value of 4-MU of the positive control to calculate a ratio vs. positive control. […]

maize [3] = test: Salt tolerance improvement test of maize; assay type: in vivo; details: 10 μM, 2 mL/cell; 1.0% NaCl five times every two days; fresh weight
Description: (§1) Two parts each involving 9 cells (3×3) were cut out of a 72-cell tray. Seedling soil was placed therein, and water was added. 4 seeds of maize were seeded per cell. The temperature was set to 20° C. using a plant growth chamber, followed by cultivation under 16-hour light and 8-hour dark conditions. After budding, Shikonix Liquid (BG) (manufactured by Ichimaru Pharcos Co., Ltd.) was diluted 500-fold and sprayed as the Lithospermi radix extract to leaf surface in one of the cell trays. The volume of the Shikonix Liquid sprayed was set to 2 mL/cell. The same volume of water was sprayed to the other cell tray and used as a control. Two days later, a 1.0% NaCl solution was prepared and absorbed from the underside of each cell tray. The NaCl solution treatment was performed five times every two days. The above-ground parts were cut off, and their fresh weights were measured. An average value (g/plant) was calculated.
as §1, with “Four parts” for “Two parts”, “budding, each naphthoquinone compound dissolved in DMSO” for “budding, Shikonix Liquid (BG) (manufactured by Ichimaru Pharcos Co., Ltd.)”, “diluted to 10 μM (final concentration) with deionized water to prepare a test solution of each example (final concentration of DMSO: 1.0% by volume). Each test solution was” for “diluted 500-fold and”, “sprayed” for “sprayed as the Lithospermi radix extract”, “the test solution” for “the Shikonix Liquid”

Arabidopsis thaliana = test: Heat tolerance induction test based on chlorophyll concentration; assay type: in vivo; details: 50 μM in medium; heat-treated at 44° C. for 1 hour; 3 days culture after
Description: A ⅕ MS medium was prepared in a 6-well plate, and filter paper was placed thereon. 12 individuals of wild-type Arabidopsis thaliana were seeded per well and grown at 22° C. for 7 days in a plant incubator under 16-hour light and 8-hour dark conditions. Next, the naphthoquinone compound of each example (shown in Table 3) dissolved in DMSO was added to a ⅕ MS medium, and each medium (final concentration: 50 μM) was prepared in a 6-well plate (final concentration of DMSO: 1.0% by volume). A medium containing 1.0% by volume of DMSO was used as a control.
The Arabidopsis thaliana grown for 7 days in the 6-well plate was transplanted, together with the filter paper, to the medium containing the compound and cultured for 1 day in a plant incubator. The plate was placed in a plastic bag and heat-treated at 44° C. for 1 hour in a water bath. After the heat treatment, culture was performed for 3 days in a plant incubator. The leaves of 4 Arabidopsis thaliana individuals were cut out, and chlorophyll was extracted with 300 μL of ethanol. The absorbance of each extract was measured at 649 nm and 665 nm, and the chlorophyll concentration (mg/L) was calculated. A higher chlorophyll concentration means that heat tolerance is better.
The shikonin compound of each example (shown in Table 4) dissolved in DMSO was added to a ⅕ MS medium, and each medium (final concentration: 50 μM) was prepared in a 6-well plate (final concentration of DMSO: 1.0% by volume). A medium containing 1% by volume of DMSO was used as a control. The other test procedures were performed in the same way as in Test Example 3.
The Lithospermi radix extract used was Shikonix Liquid (BG) (trade name, manufactured by Ichimaru Pharcos Co., Ltd.) containing a Lithospermum erythrorhizon root extract. The Shikonix Liquid contained, as major components, shikonin compounds such as acetylshikonin, β-hydroxyisovalerylshikonin, and isobutyrylshikonin. The Shikonix Liquid also contained, as additional minor components, α-methyl-n-butylshikonin, β,β-dimethylacrylshikonin, isovalerylshikonin, and shikonin.
The Shikonix Liquid (BG) was added at a dilution ratio of 150-fold to a ⅕ MS medium. The same amount of water was added as a control. ThermoZyme (manufactured by Fujimikogyo Co., Ltd.) was added at a dilution ratio of 150-fold as a positive control (Reference Example). The other test procedures were performed in the same way as in Test Example 3.

Row | Structure (SMILES) | Hypocotyl length (sprouted alfalfa; 100 μM) [mm] | Hypocotyl length (sprouted alfalfa; 1000 μM) [mm] | Survival rate (maize [1]) [%] | Ratio of 4-MU amount vs. positive control ([2]; 1 μM) | Ratio of 4-MU amount vs. positive control ([2]; 10 μM) | Ratio of 4-MU amount vs. positive control ([2]; 100 μM) | Ratio of 4-MU amount vs. positive control ([2]; 1000 μM) | Above-ground part weight (maize [3]) [g/plant] | Chlorophyll concentration (Arabidopsis thaliana) [mg/L]
1 | O=C1C=CC(=O)c2c(O)ccc(O)c21 [Example 5, 5,8-Dihydroxy-1,4-naphthoquinone] | 14.6 | 15.2 | 92 | 0.48 | 2.49 | 1.96 | 0.78 | 0.653 | 6.66
2 | O=C1C(Cl)=C(Cl)C(=O)c2c(O)ccc(O)c21 [Example 7, 2,3-Dichloro-5,8-dihydroxy-1,4-naphthoquinone] | 18.1 | 14.6 | 88 | 0.80 | 5.91 | 1.72 | 0.95 | 0.677 | 6.12
